Source: patent US8563603B2, “Polycyclic compounds and methods related thereto” (Cornell University, priority 2008, dated 2013)

Key:
[1] = test system: cell line MD-MBA-231; test: Cell cycle analysis by DNA content (hypotonic PI staining, flow cytometry); type: cell-based, human; details: for % events in sub G0 (apoptotic events) / effect on cell population in G2/M / effect on cell populations in S-phase, significance / singlet count: 1.2, 6.0, 30.0 ppm; for % events in sub G0 (apoptotic events) / effect on cell population in G2/M / effect on cell populations in S-phase, significance / singlet count / % of cells in S-phase: 24 h
Method: Twenty-four hours after exposure to compounds, 25×10^4 cells in 1.5 ml cells were simply re-suspended following either the Annexin V/FITC assay or the trypsin procedures. Cells were centrifuged at 1000-x g at room temperature and washed in 0.5 ml of hypotonic staining solution. Cells were kept a minimum of 30 min. at 4° C. in the dark. Samples were usually analyzed by flow cytometry on the same day or at 24 hrs. Resulting DNA distributions were analyzed for the proportion of cells in apoptosis and in G0/G1, S, and G2/M phases of the cell cycle. Singlet events were gated and 10,000-20,000 events were acquired within the gated region. All experiments were repeated at least three times, each in duplicate.
The cell cycle comprises steps that regulate the correct temporal sequence of events that control the growth, reproduction and differentiation of cells. The cell cycle consists of 4 phases: G0/G1, S (DNA synthesis), G2, and M (mitosis). In addition, checkpoints located in the cell cycle transition ensure that cell growth and division occur in response to appropriate signals and environment. When proliferating, if cells are subjected to DNA damage the cell cycle temporarily pauses either at G1, S or G2 phase. Arrest at these checkpoints prevents DNA replication and mitosis in the presence of unrepaired DNA damage and presumably allows time for DNA repair to occur. The proportion of cells that arrest in G1, S or G2 after damage depends on cell type, growth conditions, type of damage and the checkpoints operative in the cells. Shifts in the redistribution of phases of the cell cycle in response to various stimuli can be readily assessed by flow cytometry. DNA content analysis with the use of PI is one of the most common assays. The use of intercalating dyes to measure DNA content are the most common and are usually sufficient to determine relative shifts in the phases of the cell cycle. The hypotonic solution lyses the plasma membrane and prevents many of the aggregate problems associated with fixed cells. Propidium Iodide(PI) passes through permeabilized cell membranes and intercalates with cellular DNA. Therefore, the intensity of the PI signal is directly proportional to DNA content. DNA content experiments determine the percent induction of apoptosis and relative distribution of the cell cycle phases.
The percent of apoptotic cells (cells with fractional DNA content; sub G1 cells) were established by estimating the percentage of events showing up in sub G0. The Sub-G1 method relies on the fact that after DNA fragmentation, there are small fragments of DNA that may be eluted. However in order to be seen in the Sub G1 area, a cell must have lost enough DNA to appear there; so if cells enter apoptosis from the S or G2/M phase of the cell cycle or if there is an aneuploid population undergoing apoptosis, they may not appear in the Sub G1 peak. The number of events in sub G1 (number of nuclear fragments) provides no information on the # of cells undergoing apoptosis.

[2] = test system: Human breast cancer cell line MB-MDA-231; test: Annexin V FITC / PI apoptosis detection by flow cytometry, 24 h; type: cell-based; details: 24 h; for early stage apoptosis, FITC (+)/PI (−) staining, significance: 1.2, 6.0, 30.0 ppm
Method: Human breast cancer cell line MB-MDA-231 were cultured in Dulbecco's Modified Eagle's medium (DMEM-Sigma, D-5648), supplemented with 10% (heat-inactivated) Fetal Bovine Serum (Atlanta Biologicals, Inc.) and Antibiotic Solution, 100× (Sigma A-9909). Cells were gown at 37° C., at 5-7% CO2, and 95% humidity and were obtained from the American Type Culture Collection (ATCC). Cells were trypsinized with 0.05% Trypsin-0.2% EDTA (w/v) solution (Invitrogen Corporation, Carlsbad, Calif.).
The induction of apoptosis in MB-MDA-231 was analyzed using a well-validated Annexin V FITC apoptosis detection kit (Calbiochem), Darzynkiewicz, 1998. The phosphatidylserine (PS)-specific dye Annexin-V is used to detect apoptotic-specific changes to the organization of phospholipids leading to exposure of PS on the cell surface that precedes nuclear breakdown, DNA fragmentation, and the appearance of most apoptosis-associated molecules. For these studies cells were seeded at 25×10^4 cells/1.5 ml in a 24 well microtiter plate. Cells were allowed to adhere to plates for 24 h, and then exposed to lignans of the present invention at 5-fold dilutions of 30 μl, 6 μl, and 1.2 μl per well for 24 h. Test compounds were mixed in solution using DMSO as vehicle (10 mg extract/1 ml DMSO). Camptothecin was used as a positive control. Following the incubation period 700 μl of suspended cells were transferred to 15 ml conical tubes. Cells that remained adhered to the 24-well plates were gently washed with PBS (137 mM NaCl, 2.7 mM KCL, 4.3 mM Na2HPO4-7H2O, 1.4 mM KH2PO4, adjusted to pH 7.4), trypsinized with 1 ml of solution (0.05% Trypsin—0.2% EDTA [w/v]), and resuspended with the suspended cells/media collected in the 15 ml conical tubes from the previous step. 10 μl of media-binding reagent and 1.25 μl Annexin V-FITC was added to the 15 ml conical tubes containing both the 700 μl of suspended cells and the resuspended cells and incubated at room temperature for 15 min, at 18-24° C., in the dark. Tubes were centrifuged for 5 minutes at 1000×g at room temperature. Media was removed and cells were gently resuspended in 0.5 ml cold 1×binding buffer (dilution; 5× Binding Buffer concentrate 1:5 with dH2O) and placed on ice. 10 μl of propidium iodide was added to each tube. Cells were placed on ice away from light and analyzed immediately by flow cytometry. The dual fluorescence emissions of the respective dyes were detected in cell preparations on a BD-Biosciences FACS Aria high-speed flow cytometer/cell sorter utilizing a quartz cuvette for interrogation. To quantify the Annexin V (FL1 at 518 nm) and propidium iodide (620 nm) signals, apoptosis-induced cells (CPT) stained with FITC only and apoptosis-induced cells (CPT) labeled with only propidium iodide were utilized. Necessary adjustments were made to minimize overlap between these two measurements. Typically, 10,000-20,000 cells were scored for each sample and classified as either viable, early apoptotic, or late apoptotic or necrotic. All experiments were repeated at least three times, each in duplicate.
The principal of the Annexin V/FITC assay is that, Annexin V, an anticoagulant protein, preferentially binds negatively charged phospholipids. Early in the apoptotic process, phospholipid asymmetry is disrupted leading to the exposure of phosphatidylserine (PS) on the outer leaflet of the cytoplasmic membrane. Annexin V binds to the negatively charged calcium-dependent PS. Conjugating FITC to Annexin V with simultaneous propidium iodide (PI) staining allows bivariate analysis of intact cells. Live, healthy cells are double negative, FITC (−)/PI (−), and are seen in the lower left quadrant [A3] of FACS cytograms. Cells that are FITC (+)/PI (−) [A4] are early apoptotic. Cell populations that are advanced apoptotic or necrotic are FITC (+)/PI (+) are located in quadrant [A2]. […]

[3] = test system: human breast cancer cell line MD-MBA-231; test: Bioactivity-guided percent apoptosis, Annexin V/Propidium iodide FACS, 48-h incubation; type: cell-based; set-up: key: % of cells (Annexin V/PI FACS); details: Table E5; Dose 100
Method: Apoptosis was evaluated against human breast cancer cell line MD-MBA-231. Cells were maintained in RPMI 1640 medium (PAA Laboratories GmbH, Teddington Middlesex, UK) supplemented with 10% heat-inactivated tetracycline-free fetal calf serum (PAA Laboratories) and 2 mM L-glutamine, 100 units/ml penicillin, and 100 μg/ml streptomycin (Gibco, Grand Island, N.Y.). Cells were propagated and cultured at 37° C. in a 100% relative humidified atmosphere consisting of 5% C02 and 95% air. Cells were trypsinized with 0.05% Trypsin-0.2% EDTA (w/v) solution.
The bioactivity-guided isolation of the compounds was performed using percent apoptosis in human breast cancer cells (cell line MD-MBA-231) as the reporter. Cells were seeded in a standard 24-well microtiter plate at a density of 1.5×10^4 cells/well in […] tissue culture medium. After a 24-h incubation period cells were treated with individual fractions from the wood of Guaiacum officinale L. Test compounds were mixed in solution using DMSO as vehicle (10 μg extract/1 ml DMSO), at 30 μl. Following a 48-h incubation period, the induction of apoptosis in cell cultures was analyzed by fluorescence-activated cell sorter (FACS Caliber Becton Dickinson, San Jose, Calif.), double staining with Annexin V/Propidium iodide.
Three fractions were chosen for further evaluation based on their apoptotic activity, yields, and simplicity of their HPLC profiles. Fraction 5 was obtained by combining F5 and F6, and fraction 13 by combining fractions 13 and 14. Fraction 8 was not combined with any other. Combinations were based on TLC profiles, (FIG. 17). The percent apoptosis was calculated by using Annexin V/FITC staining and flow cytometry (Table E4).

Structure (SMILES)	% events in sub G0 (apoptotic events) [1]	effect on cell population in G2/M [1]	effect on cell populations in S-phase, significance [1]	singlet count [1]	% of cells in S-phase ([1]; 1.2 ppm) [%]	% of cells in S-phase ([1]; 6.0 ppm) [%]	% of cells in S-phase ([1]; 30 ppm) [%]	early stage apoptosis, FITC (+)/PI (−) staining, significance [2]	early apoptosis surpassing that induced by camptothecin ([2]; 6.0 ppm) [%]	early apoptosis surpassing that induced by camptothecin ([2]; 30 ppm) [%]	Apoptosis [3]	Necrosis [3]	late stage apoptotic cell death count, FITC (+)/PI (+) ([2]; highest concentration) [%]	increase in % events at G2/M over isonectandrin B and nectandrin B ([1]; highest treatment)	increase in % events at G2/M over untreated cells ([1]; highest treatment) [%]
COc1cc([C@H]2O[C@@H](c3ccc(O)c(OC)c3)[C@@H](C)[C@H]2C)ccc1O [I-d]	increased and significantly induced apoptotic activity at 30.0 ppm	lowest accumulation at 30 ppm	significantly inhibited cell populations in S-phase at all doses	significance decreases at all doses	8.2	4.7	0	significantly increased	10	24	91.14	0.35			
C=C1[C@@H](c2ccc(O)c(OC)c2)O[C@@H](c2ccc(O)c(OC)c2)[C@]12CCC1=C(C2)[C@@H](c2ccc(O)c(OC)c2)O[C@H]1c1ccc(O)c(OC)c1 [I-b]	significance at 6 and 30 ppm		significant decrease in cell populations at the two highest doses				4.5				81.37	0.41	63		
COc1cc(C[C@@H](C)[C@@H](C)Cc2ccc(O)c(OC)c2)ccc1O [I-f]	no significant increases		did so at 30 ppm				6								
COc1cc([C@H]2O[C@H](c3ccc(O)c(OC)c3)[C@@H](C)[C@H]2C)ccc1O [I-e]	without showing increased number of events in sub G0	significant blockage in G2/M at 30 ppm	significance at the highest concentration	approximately equal level of cell death as shown with untreated cells				did not show any significant increases						approximately 3 fold	8
COc1cc([C@H]2O[C@@H](c3ccc(O)c(OC)c3)[C@H](C)[C@@H]2C)ccc1O [I-c]	increased and significantly induced apoptotic activity at 30.0 ppm	significant reduction of cells at 6 and 30 ppm	inhibited cells from entering this stage as well in a concentration-dependent manner	reached minimal levels at 30 ppm				significantly increased		10	92.9	1.81			
C=C1[C@@H](c2ccc(O)c(OC)c2)O[C@@H](c2ccc(O)c(OC)c2)[C@@]12CCC1=C(C2)[C@@H](c2ccc(O)c(OC)c2)O[C@H]1c1ccc(O)c(OC)c1 [I-a]	strong apoptotic activity at 6.0 ppm, but then declined somewhat at 30 ppm		progressive decrease in % S-phase events with increasing drug concentration				< 3				90.12	0.82			
